The values that follow come from US20080221109A1, “PESTICIDAL SUBSTITUTED THIOETHERS” (priority 2005, published 2008).

Usually melting point stands for the temperature, or range, at which the solid turns liquid. `O=C1CCCCC1Sc1ncccn1` (stereo not shown) [Compound 03-43, 2-(Pyrimidin-2-ylsulfanyl)-cyclohexanone]: the melting point came to 51 °C.
